According to PMC9983306, “Structurally Defined Water‐Soluble Metallofullerene Derivatives towards Biomedical Applications” (Angewandte Chemie (International Ed. in English), 2022):

Experiment: T1 relaxivity by NMR inversion-recovery
Assay type: physicochemical
Details: per molecule concentration
Method: The T 1 relaxivity values of water‐soluble Gd MBTs were tested on 60 MHz (1.4 T) and 300 MHz (7.1 T) NMR spectrometers (Table S1), together with a representative commercial GBCA gadodiamide (i.e., Omniscan^TM). […] The enhanced contrast was directly visualized on a 1.0 T MRI scanner, with 20 μM and 5 μM 8 d, 8 d′, 8 e, and gadodiamide (Figure 5a), and the imaging contrast is consistent with the measured relaxivity values. The preclusion of ion leakage by the robust EMF cage dictates that the real limiting factor of MBT contrast agents is the toxicity of the MBT structure, not individual Gd^3+ ions, which means the molecular relaxivity of the MBTs is the more appropriate and relevant parameter for clinical evaluations. […]
Dynamic light scatt ering ex periments w ere performed using a Malvern Z etasizer Nano Z S90 instrument w ith a standard laser source (4mW, 633nm), to measure the hydrodynamic s ize of the aggregates formed by the samples in s olution. 1 uM sample concentrations were used for all the samples measured. […]
Samples 8b, 8b′ and 8c (16 µM, or 16800 ppb Lu) were taken in dialysis bags (MWCO = 1kD) and dialyzed against 1 50 mL PBS 1x f or 7 days without changing diasylate (outside solution in the beaker). […] With a detection limit < 0.1 ppb, no Lu3+ ions w ere detected in the three solutions, confirming the cage confinement of the metal ions. […]

CNC(=O)CN(CCN(CCN(CC(=O)[O-])CC(=O)NC)CC(=O)[O-])CC(=O)[O-].[Gd+3] [gadodiamide]
r1 (1.4 T), T1 relaxivity (60 MHz (1.4 T) NMR): 4.4 mM⁻¹ s⁻¹ | r1 (7.1 T), T1 relaxivity (300 MHz (7.1 T) NMR): 3.9 mM-1S-1
